Experimental data taken from ChEMBL document CHEMBL1154382, “Preliminary SAR analysis of novel antiproliferative N(6),5'-bis-ureidoadenosine derivatives” (2009).
Calls of active or inactive are those of the source.

Key:
Format in all cases: functional
CCRF-CEM = assay: Antiproliferative activity against human CCRF-CEM cells at 10 uM assessed as cell growth inhibition relative to control
NCI-H226 = assay: Antiproliferative activity against human NCI-H226 cells at 10 uM assessed as cell growth inhibition relative to control
SK-OV-3 = assay: Antiproliferative activity against human SKOV3 cells at 10 uM assessed as cell growth inhibition relative to control
U-251 = assay: Antiproliferative activity against human U251 cells at 10 uM assessed as cell growth inhibition relative to control
HCT-15 = assay: Antiproliferative activity against human HCT15 cells at 10 uM assessed as cell growth inhibition relative to control
PC-3 = assay: Antiproliferative activity against human PC3 cells at 10 uM assessed as cell growth inhibition relative to control
Hs-578T = assay: Antiproliferative activity against human Hs 578T cells at 10 uM assessed as cell growth inhibition relative to control
HOP-62 = assay: Antiproliferative activity against human HOP62 cells at 10 uM assessed as cell growth inhibition relative to control
NCI-H522 = assay: Antiproliferative activity against human NCI-H522 cells at 10 uM assessed as cell growth inhibition relative to control
HOP-92 = assay: Antiproliferative activity against human HOP92 cells at 10 uM assessed as cell growth inhibition relative to control
UO-31 = assay: Antiproliferative activity against human UO31 cells at 10 uM assessed as cell growth inhibition relative to control
M14 = assay: Antiproliferative activity against human M14 cells at 10 uM assessed as cell growth inhibition relative to control
HL-60(TB) = assay: Antiproliferative activity against human HL-60(TB) cells at 10 uM assessed as cell growth inhibition relative to control
HCT-116 = assay: Antiproliferative activity against human HCT116 cells at 10 uM assessed as cell growth inhibition relative to control
NCI-H23 = assay: Antiproliferative activity against human NCI-H23 cells at 10 uM assessed as cell growth inhibition relative to control
ACHN = assay: Antiproliferative activity against human ACHN cells at 10 uM assessed as cell growth inhibition relative to control
OVCAR-3 = assay: Antiproliferative activity against human OVCAR-3 cells at 10 uM assessed as cell growth inhibition relative to control
SN12C = assay: Antiproliferative activity against human SN12C cells at 10 uM assessed as cell growth inhibition relative to control
HCC 2998 = assay: Antiproliferative activity against human HCC2998 cells at 10 uM assessed as cell growth inhibition relative to control
OVCAR-8 = assay: Antiproliferative activity against human OVCAR8 cells at 10 uM assessed as cell growth inhibition relative to control
OVCAR-4 = assay: Antiproliferative activity against human OVCAR4 cells at 10 uM assessed as cell growth inhibition relative to control
SK-MEL-5 = assay: Antiproliferative activity against human SK-MEL-5 cells at 10 uM assessed as cell growth inhibition relative to control
NCI-H460 = assay: Antiproliferative activity against human NCI-H460 cells at 10 uM assessed as cell growth inhibition relative to control
SF-295 = assay: Antiproliferative activity against human SF295 cells at 10 uM assessed as cell growth inhibition relative to control
SNB-19 = assay: Antiproliferative activity against human SNB19 cells at 10 uM assessed as cell growth inhibition relative to control
Malme-3M = assay: Antiproliferative activity against human MALME-3M cells at 10 uM assessed as cell growth inhibition relative to control
A549 = assay: Antiproliferative activity against human A549 cells at 10 uM assessed as cell growth inhibition relative to control
SF-268 = assay: Antiproliferative activity against human SF268 cells at 10 uM assessed as cell growth inhibition relative to control
BT-549 = assay: Antiproliferative activity against human BT549 cells at 10 uM assessed as cell growth inhibition relative to control
OVCAR-5 = assay: Antiproliferative activity against human OVCAR5 cells at 10 uM assessed as cell growth inhibition relative to control
LOX IMVI = assay: Antiproliferative activity against human LOXIMVI cells at 10 uM assessed as cell growth inhibition relative to control
CAKI-1 = assay: Antiproliferative activity against human Caki1 cells at 10 uM assessed as cell growth inhibition relative to control
MOLT-4 = assay: Antiproliferative activity against human MOLT4 cells at 10 uM assessed as cell growth inhibition relative to control
SNB-75 = assay: Antiproliferative activity against human SNB75 cells at 10 uM assessed as cell growth inhibition relative to control
786-0 = assay: Antiproliferative activity against human 786-0 cells at 10 uM assessed as cell growth inhibition relative to control
SK-MEL-2 = assay: Antiproliferative activity against human SK-MEL-2 cells at 10 uM assessed as cell growth inhibition relative to control
KM12 = assay: Antiproliferative activity against human KM12 cells at 10 uM assessed as cell growth inhibition relative to control
MCF7 = assay: Antiproliferative activity against human MCF7 cells at 10 uM assessed as cell growth inhibition relative to control
EKVX = assay: Antiproliferative activity against human EKVX cells at 10 uM assessed as cell growth inhibition relative to control
TK-10 = assay: Antiproliferative activity against human TK10 cells at 10 uM assessed as cell growth inhibition relative to control
RXF 393 = assay: Antiproliferative activity against human RXF393 cells at 10 uM assessed as cell growth inhibition relative to control
K562 = assay: Antiproliferative activity against human K562 cells at 10 uM assessed as cell growth inhibition relative to control
NCI-H322M = assay: Antiproliferative activity against human NCI-H322M cells at 10 uM assessed as cell growth inhibition relative to control
SW-620 = assay: Antiproliferative activity against human SW620 cells at 10 uM assessed as cell growth inhibition relative to control
MDA-MB-231 = assay: Antiproliferative activity against human MDA-MB-231 cells at 10 uM assessed as cell growth inhibition relative to control
T47D = assay: Antiproliferative activity against human T47D cells at 10 uM assessed as cell growth inhibition relative to control
UACC-62 = assay: Antiproliferative activity against human UACC62 cells at 10 uM assessed as cell growth inhibition relative to control
RPMI8266 = assay: Antiproliferative activity against human […] cells at 10 uM assessed as cell growth inhibition relative to control
MDA-MB-468 = assay: Antiproliferative activity against human MDA-MB-468 cells at 10 uM assessed as cell growth inhibition relative to control
DU-145 = assay: Antiproliferative activity against human DU145 cells at 10 uM assessed as cell growth inhibition relative to control
SF-539 = assay: Antiproliferative activity against human SF539 cells at 10 uM assessed as cell growth inhibition relative to control
COLO 205 = assay: Antiproliferative activity against human COLO205 cells at 10 uM assessed as cell growth inhibition relative to control
SK-MEL-28 = assay: Antiproliferative activity against human SK-MEL-28 cells at 10 uM assessed as cell growth inhibition relative to control
UACC-257 = assay: Antiproliferative activity against human UACC257 cells at 10 uM assessed as cell growth inhibition relative to control
HT-29 = assay: Antiproliferative activity against human HT-29 cells at 10 uM assessed as cell growth inhibition relative to control
A498 = assay: Antiproliferative activity against human A498 cells at 10 uM assessed as cell growth inhibition relative to control
IGROV-1 = assay: Antiproliferative activity against human IGROV1 cells at 10 uM assessed as cell growth inhibition relative to control

Measured: growth inhibition (GI)

[N-]=[N+]=NC[C@H]1O[C@@H](n2cnc3c(NC(=O)Nc4ccccc4)ncnc32)[C@@H]2OC(=O)C[C@@H]21
inactive: all assays above

CNC(=O)NC[C@H]1O[C@@H](n2cnc3c(NC(=O)Nc4ccccc4)ncnc32)[C@@H]2OC(=O)C[C@@H]21
inactive: all assays above
